From patent publication US6025349A, “Phenyl.-substituted alkenylcarboguanidides carrying perfluoroalkyl groups, a process for their preparation, their use as a medicament or diagnostic agent, and also a medicament containing them” (priority 1994, dated 2000)
Counter-ions that a name gives are not always drawn.

Legend:
[1] = molecular target: T1, Na^+ /H^+ exchanger of rabbit erythrocytes (Oryctolagus cuniculus, UniProt P23791); experiment: Inhibition of the Na^+ /H^+ exchanger of rabbit erythrocytes (amiloride-sensitive sodium influx, flame photometry); format: cell-based; settings: pH 7.4, 37° C., cholesterol-fed White New Zealand rabbits
T1 construct: from tissue; host or cells: rabbit blood (erythrocytes), White New Zealand rabbits
T1 sequence (P23791 whole entry): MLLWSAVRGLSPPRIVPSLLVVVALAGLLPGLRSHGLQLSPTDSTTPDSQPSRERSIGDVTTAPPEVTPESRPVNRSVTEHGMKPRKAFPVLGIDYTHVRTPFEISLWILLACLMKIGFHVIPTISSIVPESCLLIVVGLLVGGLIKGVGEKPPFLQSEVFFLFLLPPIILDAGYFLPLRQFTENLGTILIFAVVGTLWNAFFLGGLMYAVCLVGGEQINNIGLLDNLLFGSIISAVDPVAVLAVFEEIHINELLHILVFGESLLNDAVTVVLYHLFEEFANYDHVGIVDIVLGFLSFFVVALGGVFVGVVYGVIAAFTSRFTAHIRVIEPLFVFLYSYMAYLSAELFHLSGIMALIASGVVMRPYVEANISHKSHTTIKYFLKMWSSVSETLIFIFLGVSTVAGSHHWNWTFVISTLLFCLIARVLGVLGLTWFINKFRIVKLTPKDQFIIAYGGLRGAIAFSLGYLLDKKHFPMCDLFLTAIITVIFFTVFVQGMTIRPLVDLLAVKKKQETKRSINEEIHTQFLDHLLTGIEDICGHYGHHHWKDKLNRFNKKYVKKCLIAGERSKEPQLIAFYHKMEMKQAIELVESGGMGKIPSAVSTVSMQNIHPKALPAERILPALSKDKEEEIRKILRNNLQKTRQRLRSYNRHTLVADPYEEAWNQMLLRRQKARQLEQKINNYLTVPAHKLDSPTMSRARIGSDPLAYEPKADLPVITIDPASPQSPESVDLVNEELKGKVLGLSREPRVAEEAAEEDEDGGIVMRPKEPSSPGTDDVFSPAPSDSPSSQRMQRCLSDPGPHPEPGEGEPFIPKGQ
Description: Inhibition of the Na^+ /H^+ exchanger of rabbit erythrocytes:
White New Zealand rabbits (Ivanovas) received a standard diet containing 2% cholesterol for six weeks in order to activate Na^+ /H^+ exchange and thus to be able to determine the Na^+ influx into the erythrocytes via Na^+ /H^+ exchange by flame photometry. The blood was taken from the ear arteries and anticoagulated by 25 IU/ml potassium heparin. A portion of each sample was used for duplicate determination of the hematocrit by centrifugation. Aliquots each of 100 μl were used to measure the initial Na^+ content of the erythrocytes.
In order to determine the amiloride-sensitive sodium influx, 100 μl of each blood sample were incubated in each case in 5 ml of a hyperosmolar salt/sucrose medium (mmol/l: 140 NaCl, 3 KCl, 150 sucrose, 0.1 ouabain, 20 tris-hydroxymethylaminomethane) at pH 7.4 and 37° C. The erythrocytes were then washed three times with ice-cold MgCl2 /ouabain solution (mmol/l: 112 MgCl2, 0.1 ouabain) and hemolyzed in 2.0 ml of distilled water. The intracellular sodium content was determined by flame photometry.
The net Na^+ influx was calculated from the difference between the initial sodium levels and the sodium content of the erythrocytes after incubation. The sodium influx which can be inhibited by amiloride was found from the difference in the sodium content of the erythrocytes after incubation with and without amiloride 3×10^-4 mol/l. The compounds according to the invention were also subjected to this process.

rat hearts = settings: isolated rat hearts; Eur. Heart J. 9 (suppl. 1): 167 (1988); cited from earlier work
[2] = system: cardiac rhythm disturbances; settings: cited from earlier work

SMILES	IC50 [1] [nM]	suppression of artificially induced ventricular fibrillation (rat hearts)	antiarrhythmic effect ([2]; Circulation 79, 1257-63 (1989))	accompanying side effects ([2]; in vivo)
C/C(C(=O)N=C(N)N)=C(/C)c1cc(C(F)(F)F)ccc1F [Example 10, Trans-2,3-Dimethyl-3-[2-Fluoro-5-Trifluoromethyl-Phenyl]-Acrylic Acid Guanidide]	< 1000	–	–	–
N=C(N)NC(=O)c1nc(Cl)c(N)nc1N [amiloride]	–	completely to suppress artificially induced ventricular fibrillation	only weak	blood pressure-lowering and saluretic effect
CCN(c1nc(N)c(C(=O)NC(=N)N)nc1Cl)C(C)C [ethylisopropylamiloride]	–	Even more potent than amiloride	–	–
C/C(=C\c1cccc(C(F)(F)F)c1)C(=O)N=C(N)N [Example 3, Trans-2-Methyl-3-(3-Trifluoromethylphenyl)-Acrylic Acid Guanidide]	< 1000	–	–	–
NC(N)=NC(=O)C=Cc1cccc(C(F)(F)F)c1 [Example 1, Meta-Trifluoromethylcinnamic Acid Guanidide Hydrochloride]	< 1000	–	–	–
